Biological target: WDR5-MYC (Homo sapiens, UniProt P61964)
Experiment: Inhibition of N-terminal his-tagged WDR5 (1 to 334 residues) (unknown origin)/Biotin tagged Myc (256-268 residues) (unknown origin) interaction measured after 1 hrs by HTRF assay
Assay type: protein assay

Row | IC50 [nM] | Compound
1 | 640 | Cc1cc(=O)c(C(=O)NCc2c(F)cc(N3CC[C@H](F)C3)cc2F)nn1-c1cccc(C(=O)O)c1
2 | 2480 | Cc1cc(=O)c(C(=O)NCc2c(F)cc(-c3cccc(C(=O)O)c3)cc2F)nn1-c1ccccc1
3 | 5510 | Cc1cc(=O)c(C(=O)NCc2c(F)cc(-c3cccc(C(C)O)c3)cc2F)nn1-c1ccccc1 (stereo not given)
4 | 1200 | Cc1cc(=O)c(C(=O)NCc2c(F)cc(N3CC[C@H](F)C3)cc2F)nn1-c1ccccc1
5 | 820 | Cc1cc(=O)c(C(=O)NCc2c(F)cc(N3CCCC(F)(F)C3)cc2F)nn1-c1ccccc1
6 | 5670 | Cc1cc(=O)c(C(=O)NCc2c(F)cc(N3CC[C@H](O)C3)cc2F)nn1-c1ccccc1
7 | 3830 | Cc1cc(=O)c(C(=O)NCc2c(F)cc(C3CCCOC3)cc2F)nn1-c1ccccc1 (stereo not given)
8 | 3240 | Cc1cc(=O)c(C(=O)NCc2c(F)cc(N3CCOCC3)cc2F)nn1-c1ccccc1
9 | 5690 | Cc1cc(=O)c(C(=O)NCc2c(F)cc(-c3cccc(CO)c3)cc2F)nn1-c1ccccc1
10 | 3720 | Cc1cc(=O)c(C(=O)NCc2c(F)cc(N3CC[C@@H](O)C3)cc2F)nn1-c1ccccc1
11 | 13800 | Cc1cc(=O)c(C(=O)NCc2c(F)cc(-c3cncnc3)cc2F)nn1-c1ccccc1
12 | 950 | Cc1cc(=O)c(C(=O)NCc2c(F)cc(N3CC[C@H](F)C3)cc2F)nn1-c1cccc(C(N)=O)c1
13 | 780 | Cc1cc(=O)c(C(=O)NCc2c(F)cc(N3CC[C@@H](F)C3)cc2F)nn1-c1ccccc1
14 | 1230 | Cc1cc(=O)c(C(=O)NCc2c(F)cc(N3CC[C@@H](F)C3)cc2F)nn1-c1cccc(C(=O)O)c1

Row | Compound | IC50 [nM]
15 | Cc1cc(=O)c(C(=O)NCc2c(F)cc(-c3cccc(S(=O)(=O)F)c3)cc2F)nn1-c1cccc(C(=O)O)c1 | 190
